Earlier results in patent US11459499B2, “Amidoamine-based gemini surfactant containing ethoxylate units and a method for oil recovery” (King Fahd University of Petroleum and Minerals, priority 2018, dated 2022).
Where two headings read alike, the source gives them in different places.

Structure (SMILES) | reported CMC (literature (Lu et al., 2012)) | reported CMC (literature (Hoque et al., 2012))
CCCCCCCCCCCC[N+](C)(C)CC[N+](C)(C)CCCCCCCCCCCC.[Br-].[Br-] [12-2-12] | about 5.5×10^−2 wt. % | 
CCCCCCCCCCCC[N+](C)(C)C.[Br-] [DTAB, dodecyltrimethylammonium bromide] | 5.0×10^−1 wt. % | 16.1 mM
